Source: patent US8114862B2, “TGR5 modulators and methods of use thereof” (Intercept Pharmaceuticals, Inc., priority 2008, dated 2012)
Where two headings read alike, the source gives them in different places. Marks after values point to notes of the source that are not given here.

Assays:
in vitro = settings: human
[1] = Choleretic effect (bile flow) in bile fistula rat, id and iv infusion; assay type: in vivo; settings: 1 (μmol/min)/kg bw over 1 h
[2] = Biliary secretion and metabolism in bile fistula rat, id and iv infusion; settings: rat, in vivo, 1 μmol/kg/min
bovine serum albumin = bovine serum albumin (Bos taurus, UniProt P02769); settings: values from literature; cited from earlier work
Chain of bovine serum albumin (P02769 25-607): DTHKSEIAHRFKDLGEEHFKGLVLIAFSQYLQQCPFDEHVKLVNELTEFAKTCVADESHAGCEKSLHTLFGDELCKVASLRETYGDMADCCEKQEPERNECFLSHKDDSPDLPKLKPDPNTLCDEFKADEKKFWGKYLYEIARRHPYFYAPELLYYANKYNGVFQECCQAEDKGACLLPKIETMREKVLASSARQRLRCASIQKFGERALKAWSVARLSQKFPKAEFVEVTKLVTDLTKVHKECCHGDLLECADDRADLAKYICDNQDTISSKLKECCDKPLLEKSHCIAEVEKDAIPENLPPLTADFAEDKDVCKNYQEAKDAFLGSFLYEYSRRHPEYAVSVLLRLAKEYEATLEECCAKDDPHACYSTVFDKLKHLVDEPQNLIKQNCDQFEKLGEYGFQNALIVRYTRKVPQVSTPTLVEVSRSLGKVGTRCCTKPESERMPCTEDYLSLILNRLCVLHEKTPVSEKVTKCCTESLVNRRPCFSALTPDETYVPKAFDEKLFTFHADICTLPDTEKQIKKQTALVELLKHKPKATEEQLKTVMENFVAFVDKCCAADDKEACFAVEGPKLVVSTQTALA

[3] = values from literature; cited from earlier work
[4] = values from literature; cited from earlier work; remark: listed apart in the source
TGR5 [5] = target: T1, TGR5 (Homo sapiens, UniProt Q8TDU6); assay: Direct comparison 6-ethyl vs 6-methyl 23-methyl cholic acid: TGR5; assay type: cell-based
T1 sequence (Q8TDU6 1-330): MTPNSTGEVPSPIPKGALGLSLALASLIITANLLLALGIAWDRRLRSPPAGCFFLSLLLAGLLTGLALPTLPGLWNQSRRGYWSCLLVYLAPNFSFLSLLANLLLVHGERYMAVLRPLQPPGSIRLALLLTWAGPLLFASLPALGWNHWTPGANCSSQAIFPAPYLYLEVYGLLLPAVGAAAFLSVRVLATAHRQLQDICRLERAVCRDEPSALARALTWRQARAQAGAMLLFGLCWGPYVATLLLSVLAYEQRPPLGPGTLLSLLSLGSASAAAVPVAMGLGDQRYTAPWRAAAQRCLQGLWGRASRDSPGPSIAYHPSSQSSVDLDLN

FXR = target: T2, FXR (Homo sapiens, UniProt Q96RI1); assay: Direct comparison 6-ethyl vs 6-methyl 23-methyl cholic acid: FXR; assay type: biochemical
T2 sequence (Q96RI1 262-486 limits assumed): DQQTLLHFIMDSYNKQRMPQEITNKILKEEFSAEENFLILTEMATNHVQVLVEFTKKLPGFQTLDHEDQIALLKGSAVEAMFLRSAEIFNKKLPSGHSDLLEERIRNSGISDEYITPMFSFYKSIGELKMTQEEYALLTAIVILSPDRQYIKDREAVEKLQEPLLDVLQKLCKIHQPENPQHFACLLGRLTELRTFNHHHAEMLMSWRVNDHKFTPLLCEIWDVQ

[6] = Previous study of OA tolerability in animals; assay type: in vivo
Procedure: Therefore, OA was administered at the dose of 50 mg/kg/d in this study.

TGR5 [7] = target: T1, TGR5; assay: TGR5 receptor in vitro assay (Table 1); assay type: cell-based
human FXR = human FXR (Homo sapiens, UniProt Q96RI1); assay: FRET recruitment of SRC-1 peptide to human FXR, cell-free ELiSA
Chain of human FXR (Q96RI1 whole entry): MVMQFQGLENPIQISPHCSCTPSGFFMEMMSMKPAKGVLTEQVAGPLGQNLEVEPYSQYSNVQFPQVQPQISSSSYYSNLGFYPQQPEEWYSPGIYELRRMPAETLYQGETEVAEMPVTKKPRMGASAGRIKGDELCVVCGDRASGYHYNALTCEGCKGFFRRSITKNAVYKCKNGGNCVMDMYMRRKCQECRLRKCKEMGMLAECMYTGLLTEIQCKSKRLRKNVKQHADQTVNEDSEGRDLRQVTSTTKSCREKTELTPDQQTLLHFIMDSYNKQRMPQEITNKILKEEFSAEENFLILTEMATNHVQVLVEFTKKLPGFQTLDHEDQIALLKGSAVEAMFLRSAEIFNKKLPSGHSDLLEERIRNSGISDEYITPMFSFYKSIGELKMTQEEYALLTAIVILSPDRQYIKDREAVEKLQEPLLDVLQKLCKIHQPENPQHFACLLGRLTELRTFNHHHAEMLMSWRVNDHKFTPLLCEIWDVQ

hFXR = target: T3, hFXR (Homo sapiens, UniProt Q96RI1); assay: FXR luciferase reporter assay in COS1 cells; assay type: cell-based
T3 construct: expressed in transfected cells; host or cells: COS1 cells
T3 sequence (Q96RI1 whole entry): as above
T3 sequence (P28700 whole entry partner): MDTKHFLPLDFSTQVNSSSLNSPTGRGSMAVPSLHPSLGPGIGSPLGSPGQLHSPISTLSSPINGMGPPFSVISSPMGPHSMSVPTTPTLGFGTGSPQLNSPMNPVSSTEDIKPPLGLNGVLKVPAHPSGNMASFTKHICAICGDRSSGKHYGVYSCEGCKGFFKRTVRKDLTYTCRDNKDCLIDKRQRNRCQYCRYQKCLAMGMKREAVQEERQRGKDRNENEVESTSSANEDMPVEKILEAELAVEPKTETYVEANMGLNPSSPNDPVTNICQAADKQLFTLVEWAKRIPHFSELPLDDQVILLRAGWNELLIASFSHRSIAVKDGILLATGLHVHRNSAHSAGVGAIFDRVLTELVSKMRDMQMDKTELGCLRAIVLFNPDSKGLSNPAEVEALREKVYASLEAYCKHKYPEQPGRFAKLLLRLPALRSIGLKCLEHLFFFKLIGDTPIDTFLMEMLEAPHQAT

TGR5 [8] = target: T1, TGR5; assay: CRE-driven luciferase reporter assay in TGR5-transfected CHO cells; assay type: cell-based; parameters: host or cells: CHO cells

For `CC/C(=C(\c1ccccc1)c1ccc(OCCN(C)C)cc1)c1ccccc1` [Tamoxifen], the EC50 at 4 h (in vitro; HepG2 cells) was 47 µM.

In the case of `CN[C@@H]1C[C@H]2O[C@@](C)([C@@H]1OC)n1c3ccccc3c3c4c(c5c6ccccc6n2c5c31)C(=O)NC4` [Staurosporine], the EC50 at 4 h (in vitro) is reported as 15 µM.

For `CC[C@H]1[C@@H](O)[C@@H]2[C@H](C[C@H](O)[C@]3(C)[C@@H]([C@H](C)C[C@@H](C)C(=O)O)CC[C@@H]23)[C@@]2(C)CC[C@@H](O)C[C@@H]12` [Ii3e, 6α-ethyl-(23R)-methyl-3α,7α,12α trihydroxy-5β-cholan-24-oic acid], the “SV0: maximum bile secretion rate” value ([1]; id infusion) was 81 ± 8 (μL/min)/kg bw, the “SV0: maximum bile secretion rate” value ([1]; iv infusion) was “(90 ± 5) (μL/min)/kg bw” and the fraction unbound at 4 h [2] was 0.68 ± 0.08. For the same compound, the fraction unbound at 4 h ([2]; iv) was 0.65.

In the case of `C[C@H](CCC(=O)NCCS(=O)(=O)O)[C@H]1CC[C@H]2[C@@H]3[C@H](O)C[C@@H]4C[C@H](O)CC[C@]4(C)[C@H]3CC[C@]12C` [TCDCA], the “Albumin Binding” value (bovine serum albumin) is given as 70* %, the “LogPA- (1-octanol-water partition coefficient, ionized species)” value [3] is given as 0.9* and the “CMC […] Na+” value [4] is given as 3.0* mM.

With `C[C@H]1[C@@H](O)[C@@H]2[C@H](C[C@H](O)[C@]3(C)[C@@H]([C@H](C)C[C@H](C)C(=O)O)CC[C@@H]23)[C@@]2(C)CC[C@@H](O)C[C@@H]12` [Ih3, 23(S)-Methyl-6α-methyl-3α,7α,12α-trihydroxy-5β-cholan-24-oic acid] the EC50 (TGR5 [5]; first experiment, read-out: TGR5 I exp EC50) was 1.7 µM, the EC50 (TGR5 [5]; second experiment, read-out: TGR5 II exp EC50) was 3 µM and the EC50 (FXR; first experiment, read-out: FXR I exp EC50) was 10 µM. It also gave an EC50 (FXR; second experiment, read-out: FXR II exp EC50) of 7.8 µM.

In the case of `CC1(C)CC[C@]2(C(=O)O)CC[C@]3(C)C(=CC[C@@H]4[C@@]5(C)CC[C@H](O)C(C)(C)[C@@H]5CC[C@]43C)[C@@H]2C1` [OA, oleanolic acid], the toxicity ([6]; 100 mg/kg/day) is reported as “some signs of toxicity” and the tolerability ([6]; lower dose) is reported as “well tolerated”.

In the case of `C[C@H]1[C@@H](O)C2C3CC[C@H]([C@H](C)CCC(=O)O)[C@@]3(C)CCC2[C@@]2(C)CC[C@@H](O)C[C@@H]12` (stereo partly drawn) [Compound 6α-MeCDCA], the EC50 (TGR5 [7]) is reported as 0.37 µM, the “TGR5 Data Efficacy” value (TGR5 [7]) is reported as 119% and the EC50 (human FXR) is reported as 0.21 µM. The “FXR Data Efficacy” value (human FXR) was 148%.

With `C[C@H]1[C@@H](O)C2C3CC[C@H]([C@H](C)C[C@H](C)C(=O)O)[C@@]3(C)[C@@H](O)CC2[C@@]2(C)CC[C@@H](O)C[C@@H]12` (stereo partly drawn) the “FXR Efficacy” value (hFXR; % of activity vs. 10 μM 6ECDCA) was 0.76%, the EC50 (hFXR; Table 3) was 22.8 µM and the “EC50 ratio (TGR5/FXR)” value (TGR5 [8]) was 0.035. For the same compound, the “TGR5 Efficacy” value (TGR5 [8]; % of activity vs. 10 μM LCA) was 75.6% and the EC50 (TGR5 [8]; Table 3) was 0.8 µM.

For `C[C@H](CCC(=O)NCCS(=O)(=O)O)[C@H]1CC[C@H]2[C@@H]3[C@@H](O)C[C@@H]4C[C@H](O)CC[C@]4(C)[C@H]3CC[C@]12C` [TUDCA], the “Albumin Binding” value (bovine serum albumin) is given as 67* %, the “LogPA- (1-octanol-water partition coefficient, ionized species)” value [3] is given as 1.1* and the “CMC […] Na+” value [4] is given as 2.2* mM.
